From article PMC10945555, “Improving Activity of New Arylurea Agents against Multidrug-Resistant and Biofilm-Producing Staphylococcus epidermidis” (ACS Medicinal Chemistry Letters, 2024)

How the values were obtained:
[1] = system: Staphylococcus epidermidis clinical strain no. 23; experiment: Cell membrane potential, DiOC2 flow cytometry; assay type: cell-based; conditions: 4 × MIC, within 15 min; MSSE, S. epidermidis clinical strain no. 23, S. aureus Newman
Text: 23, and S. aureus Newman (reference strain without known antibiotic resistance determinants). Bacterial strains were stained with 3,3′-diethyloxacarbocyanine iodide (DiOC2) and then treated with the tested compound 25, with carbonyl cyanide 3-chlorophenylhydrazone (CCCP) used as a positive control. Daptomycin was used as a reference compound that causes depolarization of bacterial cell membranes.[22]
(reduction of navy blue resazurin to pink resorufin in the presence of metabolically active cells) compared to the negative (sterile medium without bacteria and compounds) and positive control (medium with bacteria).9 The minimal biofilm eradication concentration value was analyzed using a high throughput screening the MBEC Assay® Kit (Innovotech, Canada), formerly the Calgary Biofilm Device, according to the manufacturer's insert.10 […]
determining MBC (Minimal Bactericidal Concentration) values. […] Then, the value of the MBC/MIC ratio was calculated to assess its bactericidal or bacteriostatic activity. […]
using the BacLight™ Bacterial Membrane Potential Kit (Molecular Probes, Invitrogen, Carlsbad, CA, USA).15 Analysis of the cells was tested in an LSR II flow cytometer (BD Biosciences Immunocytometry Systems, San Jose, CA, USA) equipped with blue, red and violet lasers, using 488 nm excitation for green (530/30 BP filter, 505 LP) and red (610/20 BP, 600 LP) fluorescence. […]

[2] = Microsomal stability assay; conditions: RLM, 60 min of incubation
Method: were treated with 100 μL of tested compound at the final concentration of 200 μM, and incubated at 37 °C for 1 h. Triton X-100 (2%) and PBS were used as positive and negative controls, respectively. After centrifugation at 3000 rpm for 3 min, 100 μL of the supernatants were transferred to a 96 well microtiter plate and the hemoglobin release was determined in a SpectraMax iD3 reader (Molecular Devices) by absorption at 540 nm.
2.3.4 Microsomal stability assay […]
following previously reported procedures.7 Tested compound was preincubated at 37 °C in a phosphate buffer (pH 7.4), containing rat liver microsomes (Sigma-Aldrich, Germany), at the concentration of 0.4 mg/mL. After 10 min, NADPH-regenerating system was added to initiate the reaction. At appropriate time points (0, 30 and 60 min), reaction was quenched with ice-cold methanol, containing the internal standard pentoxiphylline. Next samples were centrifuged and the supernatant was subjected to UPLC-MS analysis. From slope of the line on plot Ln (%remaining of parent compounds) vs time, t1/2 was determined. Clint was calculated from […]
experiment was run in duplicate. The metabolized drug verapamil was used as positive control […]
provided by Molecular Discovery Ltd. (Hertfordshire, UK). A highest probability of metabolic sites and metabolite structures were analysed by liver computational model. 8 […]

O=C(Nc1cccc(Cl)c1)NC1CCN(CCC(Oc2ccc(C(F)(F)F)cc2)c2cccs2)CC1 (centres unmarked) [Compound 25]
membrane depolarization [1]: depolarization in nearly all bacterial cells | Clin [2]: 26.7
